Laboratory results taken from patent US20240391862A1, “(1,4,5-TRISUBSTITUTED-1H-PYRAZOL-3-YL)OXY-2-ALKOXY ALKYL ACIDS AND THEIR DERIVATIVES, THEIR SALTS AND THEIR USE AS HERBICIDAL AGENTS” (Bayer AKtiengesellschaft, priority 2021, published 2024).

Tests used:
Experiment in all cases: Post-emergence herbicidal effect, greenhouse pot test
[1] = tested on: ABUTH; type: in vivo, Abutilon theophrasti; details: visual rating about 3 weeks after treatment
How it was run: (§1)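 Weeds sown in sandy loam, greenhouse-grown 2–3 weeks, then sprayed at one-leaf stage with WP or EC formulations in water plus 0.5% additive at 600 l/ha. Rates 20 to 320 g/ha. Visual rating after about 3 weeks versus untreated controls (100% = plants dead, 0% = like control).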

[2] = tested on: ALOMY; type: in vivo, Alopecurus myosuroides; details: visual rating about 3 weeks after treatment
How it was run: as §1

[3] = tested on: AMARE; type: in vivo, Amaranthus retroflexus; details: visual rating about 3 weeks after treatment
How it was run: as §1

[4] = tested on: AVEFA; type: in vivo, Avena fatua; details: visual rating about 3 weeks after treatment
How it was run: as §1

[5] = tested on: DIGSA; type: in vivo, Digitaria sanguinalis; details: 320 g/ha, visual rating about 3 weeks after treatment
How it was run: as §1

[6] = tested on: ECHCG; type: in vivo, Echinochloa crus-galli
How it was run: as §1

[7] = tested on: LOLRI; type: in vivo, Lolium rigidum
How it was run: as §1

[8] = tested on: MATIN; type: in vivo, Tripleurospermum inodorum
How it was run: as §1

[9] = tested on: PHBPU; type: in vivo, Ipomoea purpurea
How it was run: as §1

[10] = tested on: POLCO; type: in vivo, Fallopia convolvulus
How it was run: as §1

[11] = tested on: SETVI; type: in vivo, Setaria viridis
How it was run: as §1

[12] = tested on: VERPE; type: in vivo, Veronica persica
How it was run: as §1

[13] = tested on: VIOTR; type: in vivo, Viola tricolor
How it was run: as §1

[14] = tested on: KCHSC; type: in vivo
How it was run: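 Greenhouse plants in sandy loam, sprayed post-emergence at the one-leaf stage (2–3 weeks after sowing) with WP or EC formulations in water plus 0.5% additive at 600 l/ha. Rates 20 to 320 g/ha. Activity rated visually after about 3 weeks against untreated controls (0% like control, 100% dead).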

## COC(=O)C(OC)Oc1nn(-c2ncccc2F)c(-c2cncc(F)c2)c1C1CC1 (centres unmarked) [Example I-73]
[1]; 20 g/ha
  Post-emergence effect against ABUTH: 80%
[1]; Abutilon theophrasti, 504 h, 80 g/ha, read-out: Post-emergence effect against ABUTH
  pest or weed control at 80 g/ha: 80%
[1]; Abutilon theophrasti, 504 h, 320 g/ha, read-out: Post-emergence effect against ABUTH
  pest or weed control at 320 g/ha: 90%
[2]; Alopecurus myosuroides, 504 h, 80 g/ha, read-out: Post-emergence effect against ALOMY
  pest or weed control at 80 g/ha: 80%
[2]; Alopecurus myosuroides, 504 h, 320 g/ha, read-out: Post-emergence effect against ALOMY
  pest or weed control at 320 g/ha: 90%
[3]; Amaranthus retroflexus, 504 h, 20 g/ha, read-out: Post-emergence effect against AMARE
  pest or weed control at 20 g/ha: 80%
[3]; Amaranthus retroflexus, 504 h, 80 g/ha, read-out: Post-emergence effect against AMARE
  pest or weed control at 80 g/ha: 90%
[3]; Amaranthus retroflexus, 504 h, 320 g/ha, read-out: Post-emergence effect against AMARE
  pest or weed control at 320 g/ha: 90%
[4]; Avena fatua, 504 h, 80 g/ha, read-out: Post-emergence effect against AVEFA
  pest or weed control at 80 g/ha: 90%
[4]; Avena fatua, 504 h, 320 g/ha, read-out: Post-emergence effect against AVEFA
  pest or weed control at 320 g/ha: 90%
[5]; Digitaria sanguinalis, 504 h, read-out: Post-emergence effect against DIGSA
  pest or weed control at 320 g/ha: 80%
[6]; Echinochloa crus-galli, 504 h, 20 g/ha, visual rating about 3 weeks after treatment, read-out: Post-emergence effect against ECHCG
  pest or weed control at 20 g/ha: 90%
[6]; Echinochloa crus-galli, 504 h, 80 g/ha, read-out: Post-emergence effect against ECHCG in %
  pest or weed control at 80 g/ha: 90%
[6]; Echinochloa crus-galli, 504 h, 320 g/ha, read-out: Post-emergence effect against ECHCG in %
  pest or weed control at 320 g/ha: 90%
[7]; Lolium rigidum, 504 h, 80 g/ha, read-out: Post-emergence effect against LOLRI in %
  pest or weed control at 80 g/ha: 90%
[7]; Lolium rigidum, 504 h, 320 g/ha, read-out: Post-emergence effect against LOLRI in %
  pest or weed control at 320 g/ha: 90%
[8]; Tripleurospermum inodorum, 504 h, 80 g/ha, read-out: Post-emergence effect against MATIN in %
  pest or weed control at 80 g/ha: 90%
[8]; Tripleurospermum inodorum, 504 h, 320 g/ha, read-out: Post-emergence effect against MATIN in %
  pest or weed control at 320 g/ha: 90%
[9]; Ipomoea purpurea, 504 h, 20 g/ha, read-out: Post-emergence effect against PHBPU in %
  pest or weed control at 20 g/ha: 80%
[9]; Ipomoea purpurea, 504 h, 80 g/ha, read-out: Post-emergence effect against PHBPU in %
  pest or weed control at 80 g/ha: 90%
[9]; Ipomoea purpurea, 504 h, 320 g/ha, read-out: Post-emergence effect against PHBPU in %
  pest or weed control at 320 g/ha: 90%
[10]; 20 g/ha
  Post-emergence effect against POLCO in %: 80%
[10]; Fallopia convolvulus, 504 h, 80 g/ha, read-out: Post-emergence effect against POLCO in %
  pest or weed control at 80 g/ha: 80%
[10]; Fallopia convolvulus, 504 h, 320 g/ha, read-out: Post-emergence effect against POLCO in %
  pest or weed control at 320 g/ha: 90%
[11]; 20 g/ha
  Post-emergence effect against SETVI in %: 80%
[11]; Setaria viridis, 504 h, 80 g/ha, read-out: Post-emergence effect against SETVI in %
  pest or weed control at 80 g/ha: 90%
[11]; Setaria viridis, 504 h, 320 g/ha, read-out: Post-emergence effect against SETVI in %
  pest or weed control at 320 g/ha: 90%
[12]; Veronica persica, 504 h, 80 g/ha, read-out: Post-emergence effect against VERPE in %
  pest or weed control at 80 g/ha: 90%
[12]; Veronica persica, 504 h, 320 g/ha, read-out: Post-emergence effect against VERPE in %
  pest or weed control at 320 g/ha: 90%
[13]; Viola tricolor, 504 h, 20 g/ha, read-out: Post-emergence effect against VIOTR in %
  pest or weed control at 20 g/ha: 90%
[13]; Viola tricolor, 504 h, 80 g/ha, read-out: Post-emergence effect against VIOTR in %
  pest or weed control at 80 g/ha: 90%
[13]; Viola tricolor, 504 h, 320 g/ha, read-out: Post-emergence effect against VIOTR in %
  pest or weed control at 320 g/ha: 90%
[14]; 20 g/ha
  Post-emergence effect against KCHSC in %: 80%
[14]; 504 h, 80 g/ha, read-out: Post-emergence effect against KCHSC in %
  pest or weed control at 80 g/ha: 90%
[14]; 504 h, 320 g/ha, read-out: Post-emergence effect against KCHSC in %
  pest or weed control at 320 g/ha: 90%

## COC(=O)CCOC(=O)C(OC)Oc1nn(-c2cc(F)ccc2F)c(-c2cncc(F)c2)c1C1CC1 (centres unmarked) [Example I-83]
[1]; 20 g/ha
  Post-emergence effect against ABUTH: 80%
[1]; 80 g/ha
  Post-emergence effect against ABUTH: 90%
[1]; 320 g/ha
  Post-emergence effect against ABUTH: 90%
[2]; 80 g/ha
  Post-emergence effect against ALOMY: 90%
[2]; 320 g/ha
  Post-emergence effect against ALOMY: 90%
[3]; 20 g/ha
  Post-emergence effect against AMARE: 90%
[3]; 80 g/ha
  Post-emergence effect against AMARE: 90%
[3]; 320 g/ha
  Post-emergence effect against AMARE: 90%
[4]; 80 g/ha
  Post-emergence effect against AVEFA: 90%
[4]; 320 g/ha
  Post-emergence effect against AVEFA: 90%
[5]
  Post-emergence effect against DIGSA: 90%
[6]; 20 g/ha, visual rating about 3 weeks after treatment
  Post-emergence effect against ECHCG: 90%
[6]; 80 g/ha
  Post-emergence effect against ECHCG in %: 90%
[6]; 320 g/ha
  Post-emergence effect against ECHCG in %: 90%
[7]; 320 g/ha
  Post-emergence effect against LOLRI in %: 90%
[8]; 20 g/ha
  Post-emergence effect against MATIN in %: 80%
[8]; 80 g/ha
  Post-emergence effect against MATIN in %: 90%
[8]; 320 g/ha
  Post-emergence effect against MATIN in %: 90%
[9]; 20 g/ha
  Post-emergence effect against PHBPU in %: 90%
[9]; 80 g/ha
  Post-emergence effect against PHBPU in %: 90%
[9]; 320 g/ha
  Post-emergence effect against PHBPU in %: 90%
[10]; 80 g/ha
  Post-emergence effect against POLCO in %: 80%
[10]; 320 g/ha
  Post-emergence effect against POLCO in %: 90%
[11]; 20 g/ha
  Post-emergence effect against SETVI in %: 90%
[11]; 80 g/ha
  Post-emergence effect against SETVI in %: 90%
[11]; 320 g/ha
  Post-emergence effect against SETVI in %: 90%
[12]; 20 g/ha
  Post-emergence effect against VERPE in %: 90%
[12]; 80 g/ha
  Post-emergence effect against VERPE in %: 90%
[12]; 320 g/ha
  Post-emergence effect against VERPE in %: 90%
[13]; 20 g/ha
  Post-emergence effect against VIOTR in %: 90%
[13]; 80 g/ha
  Post-emergence effect against VIOTR in %: 90%
[13]; 320 g/ha
  Post-emergence effect against VIOTR in %: 90%
[14]; 320 g/ha
  Post-emergence effect against KCHSC in %: 80%
